The values below come from US8592451B2, “Reversible nondepolarizing neuromuscular blockade agents and methods for their use” (Cornell University, priority 2009, dated 2013).

Entries after “also recorded” stand apart in the source; their conditions may differ.

In data set [1] the test system is twitch contractions of the extensor digitorum muscle. In words: Rhesus monkey anesthesia bioassay for potency and duration (substituent and stereochemical comparison, preliminary studies). The conditions noted are these: rhesus monkeys. Format: in vivo. The method, then: Two stereoisomeric structures, CW 002 (R-trans, R-trans), and CW 003 (R-cis, R-cis) were tested in the rhesus monkey anesthesia bioassay for potency and duration. A third compound, CW 001 (R-trans, R-trans) bearing an additional methoxyl group on each of the two benzyl groups in the molecule, was also tested.
Rhesus monkeys were anesthetized with ketamine (7.5 mg/Kg) given intramuscularly or intravenously. Anesthesia was maintained with a mixture of isoflurane (1.5%), nitrous oxide (60%) and oxygen (40%). The common peroneal nerve was stimulated supramaximally with square wave pulses of 0.2 m sec duration at a rate of 0.15 Hz. Twitch contractions were recorded via the tendon of the extensor digitorum muscle.
In all animals, the trachea was intubated and ventilation was controlled at 12-15 ml/kg, 18-24 breaths per minute. A peripheral vein and artery were cannulated for drug administration and for recording of arterial pressure, respectively. In preliminary studies a neuromuscular blocking agent having one of the following structures was administered intravenously.

For data set [2], the system named is twitch of the extensor digitorum. Briefly: Reversal of neuromuscular blockade by L-cysteine or neostigmine in anesthetized rhesus monkeys. It is filed as in vivo, rhesus monkeys (Macaca mulatta). The method, then:
A control dose of 0.15 mg/kg CW 002 was allowed to recover spontaneously to TOF 110-120%. A second dose was given 60 minutes later, followed one minute afterwards by either neostigmine (0.05 mg/kg+atropine 0.05 mg/kg) or L-cysteine (10, 20, 30 or 50 mg/kg). Total duration and 5-95% recovery intervals were compared during spontaneous recovery vs. antagonism by L-cysteine or reversal by neostigmine.
This series of paired comparisons was designed to generate dose-response data comparing spontaneous recovery of high doses of CW 011 (from 4 to 64× ED95) versus immediate antagonism at +1 min by an optimal dose of L-cysteine (50 mg/kg), previously determined during studies of immediate antagonism of CW 002. This experiment was done to explore the limits of chemical antagonism by L-cysteine of these olefinic diester neuromuscular blocking drugs, using CW 011 as a typical example with an intermediate duration of action. Five groups of animals first received a control dose of CW 011 at 4, 8, 16, 32 or 64× ED 95 (0.1 to 1.6 mg/kg). Sixty minutes after spontaneous recovery of the control dose to TOF 110-120%, the same dose was repeated, followed 1 min later by L-cysteine (50 mg/kg). Total duration of action and 5-95% recovery interval were compared during spontaneous recovery and following antagonism by L-cysteine
The reversal of neuromuscular blockade by cysteine (5-50 mg/kg i.v.) was studied. Reversal was tested as follows: full paralysis was induced by injection of a dose of approximately 2-6× ED 95 of the compound in question. After spontaneous recovery of this dose, a second identical dose was given 15-30 min later. Cysteine was then given at +1 min after injection of the neuromuscular blocking drug at a point where no twitch was apparent (“immediate reversal”) or at the beginning of recovery from neuromuscular blockade at two percent twitch height (“classical reversal”). Comparisons were made among compounds with respect to rapidity and ease of cysteine reversal, by comparing 5-95% recovery times, and total durations of action (injection to 95% twitch recovery). Spontaneous recovery was compared with cysteine-accelerated recovery. […]

Data set [3] can be described thus: L-cysteine adduction kinetics in vitro (HPLC). Format: physicochemical. The conditions noted are these: pH 7.4, 37° C.; for NMBA peak area / [NMBA] remaining / ln* = ln (([NMBA]t[L-cysteine]t=0)/([NMBA]t=0[L-cysteine]t)): CW 002 1000 μg/mL + 1.05 equiv. L-cysteine. The method, then:
In a second experiment, to evaluate degradation in the presence of L-cysteine, buffered solutions (pH 7.4) of gantacurium, CW 002 or CW 011 were freshly prepared at 37° C. to give experimental concentrations of 1000 μg/mL (CW 002 and CW 011) and 200 μg/mL (gantacurium), after addition to and mixing with a 5% Molar excess of L-cysteine at time=0.
The concentration of neuromuscular blocking agent/parent compound remaining at specified time points after mixing was determined by high performance liquid chromatography. The concentration of blocking agent at each time point was determined from a separately prepared reaction mixture, due to the rapid rate of L-cysteine adduction. The reaction rate constant for the second order reaction of each neuromuscular blockade agent (NMBA) with L-cysteine was derived by plotting the natural log of ([NMBA]t[L-cysteine]t=0/[NMBA]t=0[L-cysteine]t) vs. time.
Concentrations selected were 200, 100 and 50 μg/ml which are approximately proportional to the relative potencies (ED 95) of gantacurium, CW 002 and CW 011 respectively. A degradation (adduction) pathway in the presence of L-cysteine for each of the three compounds was proposed.
The reaction of L-cysteine with CW 002, CW 011 or gantacurium is first order in the case of both the neuromuscular blockade agent (NMBA) and L-cysteine, represented by the rate equation (1). d[Adduct]/dt=−d[NMBA]/dt=ka[NMBA][L-cysteine] (1)
Calculation of the L-cysteine adduction half time requires experimental derivation of the reaction rate constant, ka, for each compound. The initial concentrations of NMBA and L-cysteine are unequal in the experiments conducted for this study, thus integration of equation 1 gives equation 2, where [NMBA]0 is the NMBA concentration at time equals 0 and [NMBA]t is the NMBA concentration at a time point, t.
[formula] A plot of the ln(([NMBA]t [L-cysteine]0)/([NMBA]0 [L-cysteine]t)) versus time (ln* vs. t) gives a line, with slope equal to ka([NMBA]0−[L-cysteine]0). An adduction reaction half time can be calculated by solving for ka to be used in equation 3.
NMBA standard solutions were prepared by a method similar to that used to prepare hydrolysis standards. The standards were prepared at 1000 μg/mL for CW 002 and CW 011 and 200 μg/mL for gantacurium.
Solutions used for determination of NMBA concentration at the reported times for CW 002 and CW 011 were prepared as follows: L-cysteine hydrochloride monohydrate was charged to a volumetric flask in de-ionized water. A 5 mL aliquot of the L-cysteine solution (1.05 equiv. L-cysteine with respect to NMBA) was transferred by volumetric pipette to a flask held at 37.0±0.3° C. CW 002 or CW 011 was then charged to a separate 25 mL volumetric flask and diluted to volume with pH 7.4 phosphate buffer at 37.0° C. The NMBA solution was then immediately transferred to the flask containing L-cysteine to give an initial NMBA concentration of 1000 μg/mL. Solutions used for determination of gantacurium concentration versus time were prepared in a similar manner to give an initial concentration of 200 μg/mL. T=0 was defined as the time of addition of NMBA solution to L-cysteine solution. The times listed in the results table show the point of HPLC sample injection following mixing of L-cysteine and NMBA at time=0 (Table 1, below).
Rate constants were calculated using equation (3) and the slope of the trend line derived from each data set. The strong linear correlation of the data within each set supports the use of second order kinetics for analysis of the cysteine adduction reactions.
Reaction half times were calculated using equation 4 and the experimentally determined rate constants. The initial NMBA concentrations were chosen to reflect the relative potency observed in vivo.

With `COc1ccc(C[C@@H]2c3cc(OC)c(OC)cc3CC[N@@+]2(C)CCCOC(=O)/C=C/C(=O)OCCC[N@+]2(C)CCc3cc(OC)c(OC)cc3[C@H]2Cc2ccc(OC)c(OC)c2)cc1OC` [CW 002], the “reversibility of effect by cysteine or glutathione” value in data set [1] is recorded as “reversible”. In data set [1] (intravenously, preliminary studies), the “Potency (ED95 mg/kg)” value stood at 0.04 mg/kg. In addition, the “Duration at 4X ED95” value in data set [1] (preliminary studies, 4X ED95, head prints no unit (column beside it: minutes)) is 30-35. The “Duration (minutes), from injection to 95% twitch recovery” value in data set [1] (preliminary studies, dose not printed (beside ED95 column)) is 20 to 25 min. In addition, the “immediate antagonism of blockade by L-cysteine (FIG. 1B)” value in data set [2] (CW 002 0.15 mg/kg (~4× ED 95), L-cysteine 10, 20, 30 or 50 mg/kg at +1 min) was “dose-related acceleration of recovery”. Besides, in data set [2] (CW 002 0.15 mg/kg (~4× ED 95), neostigmine 0.05 mg/kg + atropine 0.05 mg/kg at +1 min), the “immediate antagonism of blockade by neostigmine (FIG. 1A)” value is “not achieved significantly faster than the spontaneous reversal; also recorded: did not shorten recovery”. In data set [2] (CW 002 0.15 mg/kg, all cysteine concentrations tested (10 to 50 mg/kg)), the “time to reversal of blockade with cysteine (FIG. 1B)” value is “less than 6 minutes”. In addition, the “time from cysteine administration to beginning of reversal (FIG. 1B)” value in data set [2] (CW 002 0.15 mg/kg, higher cysteine doses) fell in the range of 2 to 3 min. For the same molecule, the “time to spontaneous reversal of blockade (FIG. 1)” value in data set [2] (CW 002 0.15 mg/kg, no reversal agent) is “more than 12 minutes”. Also, the “reversibility of neuromuscular blockade by thiol compounds” value in data set [2] (cysteine (L or D) or glutathione) is “reversible”. The “effect of neostigmine given immediately after the blocking drug” value in data set [2] (immediate reversal) is on record as “ineffective”. Besides, the “classical antagonism of neuromuscular blockade by neostigmine” value in data set [2] (neostigmine given at beginning of spontaneous recovery, e.g. at 2% twitch height) is “showed antagonism”. In data set [3] (Trial 1, 142 Sec), the NMBA peak area came to 2746.0 mAU's, the “[NMBA] remaining” value worked out at 224 µM and the “ln* = ln (([NMBA]t[L-cysteine]t=0)/([NMBA]t=0[L-cysteine]t))” value (“ln* = ln” for short) is reported as −0.240. For the same molecule, in data set [3] (Trial 2, 170 Sec), the NMBA peak area was 2350.7 mAU's, the “[NMBA] remaining” value was determined as 192 µM and the “ln* = ln” value is listed as −0.277. In data set [3] (Trial 3, 188 Sec), the NMBA peak area turned out to be 2237.9 mAU's, the “[NMBA] remaining” value was determined as 183 µM and the “ln* = ln” value is listed as −0.297. Further, the “Plot Slope (ln* vs. time)” value in data set [3] (L-cysteine adduction, data of Table 1) is listed as −0.0012. In addition, in data set [3], the “ka, second order rate constant of L-cysteine adduction” value was 14.3 M⁻¹ s⁻¹. Moreover, the half-life at 100 μg/ml in data set [3] (pH 7.4 phosphate buffer with L-cysteine, calculated at [NMBA]0 0.000102 M (100 μg/ml), read-out: L-cysteine adduction reaction half time t1/2) is 11.4 min.
